This is an account of results in ChEMBL document CHEMBL1157430, “Design, synthesis, and structure-activity relationship study of a novel class of ORL1 receptor antagonists based on N-biarylmethyl spiropiperidine” (Bioorg Med Chem Lett, 2008).

SMILES strings stand for the structures. Where only a bound is given, the exact number is not on record here.

Chain of Kappa-type opioid receptor (P41145 whole entry): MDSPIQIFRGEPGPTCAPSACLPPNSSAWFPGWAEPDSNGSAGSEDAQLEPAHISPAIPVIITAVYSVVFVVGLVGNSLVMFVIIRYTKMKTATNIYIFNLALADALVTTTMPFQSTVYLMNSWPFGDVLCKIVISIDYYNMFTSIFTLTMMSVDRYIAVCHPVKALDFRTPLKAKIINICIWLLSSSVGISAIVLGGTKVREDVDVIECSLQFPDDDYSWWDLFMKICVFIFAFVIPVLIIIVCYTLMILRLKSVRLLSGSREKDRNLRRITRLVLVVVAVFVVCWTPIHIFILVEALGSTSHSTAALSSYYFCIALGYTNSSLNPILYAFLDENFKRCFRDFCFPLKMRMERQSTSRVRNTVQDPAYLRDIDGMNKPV

The target in one series is Voltage-gated inwardly rectifying potassium channel KCNH2 (Homo sapiens, UniProt Q12809). The experiment in a line: Displacement of [35S]MK499 from human ERG in HEK293 cell membrane.
Chain of Voltage-gated inwardly rectifying potassium channel KCNH2 (Q12809 whole entry): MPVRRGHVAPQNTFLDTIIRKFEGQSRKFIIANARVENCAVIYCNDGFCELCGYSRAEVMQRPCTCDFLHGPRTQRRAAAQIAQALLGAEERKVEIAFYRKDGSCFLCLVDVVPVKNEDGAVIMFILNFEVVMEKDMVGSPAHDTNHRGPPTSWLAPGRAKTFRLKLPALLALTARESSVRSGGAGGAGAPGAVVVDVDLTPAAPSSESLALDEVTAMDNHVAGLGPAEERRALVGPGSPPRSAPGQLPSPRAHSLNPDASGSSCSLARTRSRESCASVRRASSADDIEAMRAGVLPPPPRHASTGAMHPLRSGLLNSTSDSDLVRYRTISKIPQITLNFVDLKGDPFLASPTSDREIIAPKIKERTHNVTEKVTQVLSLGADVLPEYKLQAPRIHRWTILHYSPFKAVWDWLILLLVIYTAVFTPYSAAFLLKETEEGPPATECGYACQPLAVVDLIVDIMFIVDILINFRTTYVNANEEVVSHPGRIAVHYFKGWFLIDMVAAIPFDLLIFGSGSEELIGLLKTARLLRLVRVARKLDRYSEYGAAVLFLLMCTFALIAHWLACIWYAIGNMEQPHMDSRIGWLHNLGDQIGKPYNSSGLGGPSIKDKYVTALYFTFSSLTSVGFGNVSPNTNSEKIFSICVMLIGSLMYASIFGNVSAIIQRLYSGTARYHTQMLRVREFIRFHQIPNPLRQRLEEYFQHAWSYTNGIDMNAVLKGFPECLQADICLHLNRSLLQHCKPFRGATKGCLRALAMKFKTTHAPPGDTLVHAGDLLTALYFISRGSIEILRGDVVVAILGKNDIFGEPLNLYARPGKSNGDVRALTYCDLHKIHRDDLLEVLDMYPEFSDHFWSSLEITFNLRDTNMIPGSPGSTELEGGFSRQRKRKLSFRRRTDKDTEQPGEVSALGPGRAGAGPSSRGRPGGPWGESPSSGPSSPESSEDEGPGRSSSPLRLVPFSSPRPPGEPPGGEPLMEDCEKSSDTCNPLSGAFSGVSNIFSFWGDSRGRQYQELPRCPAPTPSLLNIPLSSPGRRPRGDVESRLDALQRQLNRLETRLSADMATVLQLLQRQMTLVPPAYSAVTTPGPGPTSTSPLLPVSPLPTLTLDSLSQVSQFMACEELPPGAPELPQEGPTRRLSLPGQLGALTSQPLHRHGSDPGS
Conditions: not given
For `Cc1cccnc1-n1cc(CN2CCC3(CC2)OCc2ccccc23)c(C)n1`, the IC50 turned out to be 13000 nM.
On the same count and under the same terms, under `Cc1nn(-c2c(Cl)cccc2NS(C)(=O)=O)cc1CN1CCC2(CC1)OCc1ccccc12` stands 17000 nM.

Another series concerns CHO. The experiment in a line: Displacement of [125I]Tyr14-NC/OFQ from human ORL1 expressed in CHO cells at 1 uM. Type of series: cell-based.
Conditions: not given
A word on the inhibition: it is the relative decrease from the control value, in per cent. In the case of `Cc1nn(-c2ccccc2)nc1CN1CCC2(CC1)OCc1ccccc12`, the inhibition was found to be 36%.
As for `c1ccc(-c2csc(CN3CCC4(CC3)OCc3ccccc34)n2)cc1`, the inhibition was -7%.
On the same count and under the same terms, with `c1cncc(-c2ccccc2CN2CCC3(CC2)OCc2ccccc23)c1` the figure was 31%; with `c1ccc(-c2nc(CN3CCC4(CC3)OCc3ccccc34)cs2)cc1`, 3%; with `c1cc(CN2CCC3(CC2)OCc2ccccc23)cc(-c2ccncc2)c1`, 18%.
On to `c1cncc(-c2cccc(CN3CCC4(CC3)OCc3ccccc34)c2)c1`, for which the inhibition stood at 45%.
Turning to `c1cncc(-c2ccc(CN3CCC4(CC3)OCc3ccccc34)cc2)c1`, the inhibition was 15%.
Same read-out and setting: with `c1ccc(-n2nccc2CN2CCC3(CC2)OCc2ccccc23)cc1` the figure was -2%.

Tested on in a further series: not listed separately
The experiment in a line: Metabolic stability in rat liver microsomes at 1 uM after 30 mins. The class given is ADME, Microsome. The following applies: read-out: Stability.
On to `Cc1nn(-c2ccccc2)cc1CN1CCC2(CC1)OCc1ccccc12`, for which the remaining at 0.5 h, 1 µM was found to be 4%.
On the same count and under the same terms, under `Cc1cccnc1-n1cc(CN2CCC3(CC2)OCc2ccccc23)c(C)n1` stands 1%; under `Cc1nn(-c2ncccc2Cl)cc1CN1CCC2(CC1)OCc1ccccc12`, 6%; under `Cc1nn(-c2c(Cl)cccc2NS(C)(=O)=O)cc1CN1CCC2(CC1)OCc1ccccc12`, 69%.

Another series concerns the target Kappa-type opioid receptor (Homo sapiens, UniProt P41145). The experiment in a line: Displacement of [3H]U69593 from human cloned kappa opioid receptor expressed in CHO cells.
Conditions: not given
The class given is cell-based. In general terms: Displacement assays read how much labelled ligand stays bound in the presence of the test substance.
Consider `Cc1nn(-c2ccccc2)cc1CN1CCC2(CC1)OCc1ccccc12`, for which the IC50 came out at 9700 nM.
The compound `Cc1cccnc1-n1cc(CN2CCC3(CC2)OCc2ccccc23)c(C)n1` had an IC50 of more than 10000 nM.
Same read-out and setting: with `Cc1nn(-c2ncccc2Cl)cc1CN1CCC2(CC1)OCc1ccccc12` the figure was more than 10000 nM.
`Cc1nn(-c2c(Cl)cccc2NS(C)(=O)=O)cc1CN1CCC2(CC1)OCc1ccccc12` had an IC50 of more than 10000 nM.

Tested on in a further series: not listed separately
In words: Displacement of [125I]Tyr14-NC/OFQ from human ORL1 expressed in CHO cells. The following applies: read-out: I50. Type of series: cell-based.
Take `Cc1nn(-c2ccc(Cl)cn2)cc1CN1CCC2(CC1)OCc1ccccc12`: the IC50 turned out to be 280 nM.
Consider `Cc1nn(-c2ccccc2Cl)cc1CN1CCC2(CC1)OCc1ccccc12`, for which the IC50 amounted to 0.65 nM.
On the same count and under the same terms, with `c1ccc(-c2cccc(CN3CCC4(CC3)OCc3ccccc34)c2)nc1` the figure was 310 nM; with `Cc1ccnc(-n2cc(CN3CCC4(CC3)OCc3ccccc34)c(C)n2)c1`, 19 nM.
Still for that read-out and setting: under `Cc1nn(-c2ccccc2)nc1CN1CCC2(CC1)OCc1ccccc12` stands more than 1000 nM; under `Cc1nn(-c2cccnc2)cc1CN1CCC2(CC1)OCc1ccccc12`, 130 nM.
Regarding `Cc1nn(-c2cccc(Cl)n2)cc1CN1CCC2(CC1)OCc1ccccc12`, the IC50 worked out at 43 nM.
Turning to `Cc1nn(-c2ccccc2)cc1CN1CCC2(CC1)OCc1ccccc12`, the IC50 was 6.9 nM.
Same read-out and setting: with `c1ccc(-c2csc(CN3CCC4(CC3)OCc3ccccc34)n2)cc1` the figure was more than 1000 nM.
In the case of `c1cncc(-c2ccccc2CN2CCC3(CC2)OCc2ccccc23)c1`, the IC50 was more than 1000 nM.
As to `Cc1nn(-c2ccccn2)cc1CN1CCC2(CC1)OCc1ccccc12`, the IC50 amounted to 12 nM.
The same measure, in the same setting: with `Cc1cccnc1-n1cc(CN2CCC3(CC2)OCc2ccccc23)c(C)n1` the figure was 2.6 nM; with `c1ccc(Cc2nn(-c3ccccc3)cc2CN2CCC3(CC2)OCc2ccccc23)cc1`, 30 nM; with `c1ccc(-c2nc(CN3CCC4(CC3)OCc3ccccc34)cs2)cc1`, more than 1000 nM.
The same measure, in the same setting: with `CC(=O)Nc1cccnc1-n1cc(CN2CCC3(CC2)OCc2ccccc23)c(C)n1` the figure was 27 nM; with `CC(C)(C)c1nn(-c2ccccc2)cc1CN1CCC2(CC1)OCc1ccccc12`, 59 nM; with `c1cc(CN2CCC3(CC2)OCc2ccccc23)cc(-c2ccncc2)c1`, more than 1000 nM.
For the compound `Cc1nn(-c2ccccc2)c(C)c1CN1CCC2(CC1)OCc1ccccc12`, the IC50 is 13 nM.
The same measure, in the same setting: with `CCc1nn(-c2ccccc2)cc1CN1CCC2(CC1)OCc1ccccc12` the figure was 9.4 nM; with `Cc1nn(-c2ncccc2Cl)cc1CN1CCC2(CC1)OCc1ccccc12`, 4.5 nM; with `c1ccc(-n2cc(CN3CCC4(CC3)OCc3ccccc34)cn2)cc1`, 40 nM.
Still for that read-out and setting: with `c1ccc(-n2cc(CN3CCC4(CC3)OCc3ccccc34)nn2)cc1` the figure was 190 nM; with `CC(C)c1nn(-c2ccccc2)cc1CN1CCC2(CC1)OCc1ccccc12`, 21 nM; with `c1cncc(-c2cccc(CN3CCC4(CC3)OCc3ccccc34)c2)c1`, more than 1000 nM.
Still for that read-out and setting: under `Cc1nn(-c2ncccn2)cc1CN1CCC2(CC1)OCc1ccccc12` stands 93 nM; under `c1cncc(-c2ccc(CN3CCC4(CC3)OCc3ccccc34)cc2)c1`, more than 1000 nM; under `c1ccc(-n2nccc2CN2CCC3(CC2)OCc2ccccc23)cc1`, more than 1000 nM.
As for `Cc1nn(-c2ncccc2NS(C)(=O)=O)cc1CN1CCC2(CC1)OCc1ccccc12`, the IC50 was found to be 11 nM.
The same measure, in the same setting: with `Cc1nn(-c2c(Cl)cccc2NS(C)(=O)=O)cc1CN1CCC2(CC1)OCc1ccccc12` the figure was 1.9 nM; with `Cc1nn(-c2cnccn2)cc1CN1CCC2(CC1)OCc1ccccc12`, 200 nM; with `Cc1nn(-c2ccncc2)cc1CN1CCC2(CC1)OCc1ccccc12`, 820 nM.
For the compound `Cc1c(CN2CCC3(CC2)OCc2ccccc23)cnn1-c1ccccc1`, the IC50 came to 100 nM.
On to `CNC(=O)c1cccnc1-n1cc(CN2CCC3(CC2)OCc2ccccc23)c(C)n1`, for which the IC50 came out at 22 nM.

Tested on in a further series: not listed separately
The experiment in a line: Antagonist activity at human ORL1 expressed in CHO cells by GTPgammaS binding assay. Type of series: cell-based. The following applies: read-out: I50.
Regarding `Cc1nn(-c2ccccc2Cl)cc1CN1CCC2(CC1)OCc1ccccc12`, the IC50 was found to be 0.87 nM.
Consider `Cc1ccnc(-n2cc(CN3CCC4(CC3)OCc3ccccc34)c(C)n2)c1`, for which the IC50 amounted to 45 nM.
The same measure, in the same setting: with `Cc1nn(-c2ccccc2)cc1CN1CCC2(CC1)OCc1ccccc12` the figure was 1.6 nM; with `Cc1nn(-c2ccccn2)cc1CN1CCC2(CC1)OCc1ccccc12`, 16 nM; with `Cc1cccnc1-n1cc(CN2CCC3(CC2)OCc2ccccc23)c(C)n1`, 2.6 nM.
For `CCc1nn(-c2ccccc2)cc1CN1CCC2(CC1)OCc1ccccc12`, the IC50 was found to be 8.4 nM.
For the compound `Cc1nn(-c2ncccc2Cl)cc1CN1CCC2(CC1)OCc1ccccc12`, the IC50 stood at 2.7 nM.
`Cc1nn(-c2c(Cl)cccc2NS(C)(=O)=O)cc1CN1CCC2(CC1)OCc1ccccc12`: the IC50 was determined as 0.53 nM.

Tested on in another series: not listed separately
The experiment in a line: Lipophilicity Log D at pH 7.4 by shake flask method. Type of series: physicochemical. The following applies: buffer.
The logD is lipophilicity at a set pH, counting ionised and neutral species. Lower therefore signals lower lipophilicity. In turn, `Cc1nn(-c2ccc(Cl)cn2)cc1CN1CCC2(CC1)OCc1ccccc12` returned a logD of 3.5.
`Cc1nn(-c2ccccc2Cl)cc1CN1CCC2(CC1)OCc1ccccc12` came in with a logD of 3.7.
On the same count and under the same terms, with `Cc1ccnc(-n2cc(CN3CCC4(CC3)OCc3ccccc34)c(C)n2)c1` the figure was 3.2; with `Cc1nn(-c2cccnc2)cc1CN1CCC2(CC1)OCc1ccccc12`, 3.2.
Regarding `Cc1nn(-c2cccc(Cl)n2)cc1CN1CCC2(CC1)OCc1ccccc12`, the logD turned out to be 3.9.
Same read-out and setting: under `Cc1nn(-c2ccccc2)cc1CN1CCC2(CC1)OCc1ccccc12` stands more than 4.
In turn, `Cc1nn(-c2ccccn2)cc1CN1CCC2(CC1)OCc1ccccc12` yielded a logD of 3.1.
On the same count and under the same terms, under `Cc1cccnc1-n1cc(CN2CCC3(CC2)OCc2ccccc23)c(C)n1` stands 2.7; under `CC(=O)Nc1cccnc1-n1cc(CN2CCC3(CC2)OCc2ccccc23)c(C)n1`, 3.2.
For the compound `Cc1nn(-c2ncccc2Cl)cc1CN1CCC2(CC1)OCc1ccccc12`, the logD stood at 3.1.
For `Cc1nn(-c2ncccn2)cc1CN1CCC2(CC1)OCc1ccccc12`, the logD is 2.9.
The same measure, in the same setting: under `Cc1nn(-c2ncccc2NS(C)(=O)=O)cc1CN1CCC2(CC1)OCc1ccccc12` stands 2.1; under `Cc1nn(-c2c(Cl)cccc2NS(C)(=O)=O)cc1CN1CCC2(CC1)OCc1ccccc12`, 2.1; under `Cc1nn(-c2cnccn2)cc1CN1CCC2(CC1)OCc1ccccc12`, 3.5.
In turn, `Cc1nn(-c2ccncc2)cc1CN1CCC2(CC1)OCc1ccccc12` returned a logD of 3.7.
The same measure, in the same setting: under `CNC(=O)c1cccnc1-n1cc(CN2CCC3(CC2)OCc2ccccc23)c(C)n1` stands 1.4.

For a further series, the target named is Mu-type opioid receptor (Homo sapiens, UniProt P35372). The experiment in a line: Displacement of [3H]diprenorphin from human cloned mu opioid receptor expressed in CHO cells. The class given is cell-based.
Chain of Mu-type opioid receptor (P35372 whole entry): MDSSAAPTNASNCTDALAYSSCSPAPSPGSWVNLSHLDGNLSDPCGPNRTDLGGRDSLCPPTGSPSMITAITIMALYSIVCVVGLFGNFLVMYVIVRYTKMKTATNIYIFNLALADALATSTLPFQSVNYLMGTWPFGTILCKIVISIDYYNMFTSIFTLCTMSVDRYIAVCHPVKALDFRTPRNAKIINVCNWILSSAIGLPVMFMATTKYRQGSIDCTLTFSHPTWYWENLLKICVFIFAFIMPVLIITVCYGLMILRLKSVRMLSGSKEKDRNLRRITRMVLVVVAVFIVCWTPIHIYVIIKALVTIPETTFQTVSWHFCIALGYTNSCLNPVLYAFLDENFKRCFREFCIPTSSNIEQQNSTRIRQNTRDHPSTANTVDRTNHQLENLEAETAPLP
Conditions: not given
In the case of `Cc1nn(-c2ccccc2)cc1CN1CCC2(CC1)OCc1ccccc12`, the IC50 was 3200 nM.
Same read-out and setting: under `Cc1cccnc1-n1cc(CN2CCC3(CC2)OCc2ccccc23)c(C)n1` stands 4400 nM; under `Cc1nn(-c2ncccc2Cl)cc1CN1CCC2(CC1)OCc1ccccc12`, 7400 nM; under `Cc1nn(-c2c(Cl)cccc2NS(C)(=O)=O)cc1CN1CCC2(CC1)OCc1ccccc12`, more than 10000 nM.

Tested on in another series: not listed separately
The experiment in a line: Metabolic stability in human liver microsomes at 1 uM after 30 mins. Type of series: ADME, Microsome. The following applies: read-out: Stability. (In general: Microsomes from liver hold many membrane-bound enzymes, among them those of drug oxidation.)
With `Cc1nn(-c2ccccc2)cc1CN1CCC2(CC1)OCc1ccccc12`, the remaining at 0.5 h, 1 µM worked out at 28%.
With `Cc1cccnc1-n1cc(CN2CCC3(CC2)OCc2ccccc23)c(C)n1`, the remaining at 0.5 h, 1 µM stood at 64%.
Still for that read-out and setting: under `Cc1nn(-c2ncccc2Cl)cc1CN1CCC2(CC1)OCc1ccccc12` stands 60%.
As to `Cc1nn(-c2c(Cl)cccc2NS(C)(=O)=O)cc1CN1CCC2(CC1)OCc1ccccc12`, the remaining at 0.5 h, 1 µM is 54%.
